In ChEMBL document CHEMBL4715902, “Thiophene-Pyrazolourea Derivatives as Potent, Orally Bioavailable, and Isoform-Selective JNK3 Inhibitors” (ACS Med Chem Lett, 2021):
pIC50: −log10 of the molar value. Active and inactive are the calls of the source. The calls are words filed in the database; no cut-off is given here.

Tests used:
[1] = molecular target: Mitogen-activated protein kinase 14 (Homo sapiens, UniProt Q16539); assay: Inhibition of P38alpha (unknown origin)
[2] = Metabolic stability in mouse liver microsomes assessed as half life; type: ADME, Microsome
[3] = Metabolic stability in human liver microsomes assessed as half life; type: ADME, Microsome
[4] = tested on: SH-SY5Y; assay: Cytotoxicity against human SH-SY5Y cells assessed as cell viability at 10 uM after 48 hrs by MTT assay relative to control; type: cell-based
[5] = molecular target: Mitogen-activated protein kinase 10 (Rattus norvegicus) (UniProt P49187); assay: Inhibition of JNK3 in rat primary neuron assessed as reduction in phosphorylation of APP at T688 residue at 10 nM incubated for 30 mins by Western blot analysis; conditions: dose nM 10, time 30.0 min
[6] = Brain concentration in C57BL/6J mouse at 10 mg/kg, po measured after 1 hr by LC-MS/MS analysis; type: ADME, organism-based; conditions: read-out: Drug uptake
[7] = Plasma concentration in C57BL/6J mouse at 10 mg/kg, po measured after 1 hr by LC-MS/MS analysis; type: ADME, organism-based

Sequence of Mitogen-activated protein kinase 10 (Rattus norvegicus) (P49187 whole entry): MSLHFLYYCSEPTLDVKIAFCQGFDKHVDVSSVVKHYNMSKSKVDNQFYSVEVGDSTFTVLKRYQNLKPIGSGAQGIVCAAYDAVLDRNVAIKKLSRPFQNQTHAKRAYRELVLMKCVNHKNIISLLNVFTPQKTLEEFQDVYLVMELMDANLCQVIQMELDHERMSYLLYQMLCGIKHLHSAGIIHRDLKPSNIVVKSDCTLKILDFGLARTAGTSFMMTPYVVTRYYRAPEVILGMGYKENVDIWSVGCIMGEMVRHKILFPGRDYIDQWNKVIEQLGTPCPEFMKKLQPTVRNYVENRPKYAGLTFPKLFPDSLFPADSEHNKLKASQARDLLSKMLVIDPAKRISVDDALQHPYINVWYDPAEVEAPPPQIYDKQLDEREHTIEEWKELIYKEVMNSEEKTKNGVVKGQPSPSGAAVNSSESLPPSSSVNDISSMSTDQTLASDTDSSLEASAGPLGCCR
Sequence of Mitogen-activated protein kinase 14 (Q16539 whole entry): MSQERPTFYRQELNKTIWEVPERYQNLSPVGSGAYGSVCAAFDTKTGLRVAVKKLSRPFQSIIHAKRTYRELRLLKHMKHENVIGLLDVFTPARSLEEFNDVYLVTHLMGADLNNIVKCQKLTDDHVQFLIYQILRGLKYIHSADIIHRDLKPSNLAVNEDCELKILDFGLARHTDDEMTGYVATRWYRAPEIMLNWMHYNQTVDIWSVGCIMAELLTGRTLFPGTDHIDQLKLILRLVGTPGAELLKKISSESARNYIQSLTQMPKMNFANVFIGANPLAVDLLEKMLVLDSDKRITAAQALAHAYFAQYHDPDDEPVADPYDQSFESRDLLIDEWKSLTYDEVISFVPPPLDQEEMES

Row | SMILES | pIC50 [1] | t1/2 [2] [min] | t1/2 [3] [min] | inhibition [5] | concentration at 1 h [6] [nM] | concentration at 1 h [7] [nM] | Activity [4] [%]
1 | O=C(Nc1cnn(-c2csc(C(=O)NC3COC3)c2)c1)Nc1c(F)cccc1Cl | – | 72 | 100 | – | – | – | 102
2 | O=C(Nc1cnn(-c2csc(C(=O)NC3COC3)c2)c1)Nc1ccc(F)cc1Cl | – | 68 | > 120 | Active | – | – | 104
3 | CN1CC[C@H](CNC(=O)c2cc(-n3cc(NC(=O)Nc4ccccc4Cl)cn3)cs2)C1 | < 4.70 | – | – | – | – | – | –
4 | Cc1sc(C(=O)NC2COC2)cc1-n1cc(NC(=O)Nc2c(F)cccc2Cl)cn1 | – | 57 | 110 | – | – | – | 111
5 | CN1CCC[C@H]1CNC(=O)c1cc(-n2cc(NC(=O)Nc3ccccc3Cl)cn2)cs1 | < 4.70 | – | – | – | – | – | –
6 | O=C(Nc1cnn(-c2csc(C(=O)NCC3CCOCC3)c2)c1)Nc1ccccc1Cl | – | 15 | 8 | – | – | – | 95
7 | O=C(Nc1cnn(-c2csc(C(=O)NC[C@H]3CCOC3)c2)c1)Nc1ccccc1Cl | < 4.70 | – | – | – | – | – | –
8 | Cc1sc(C(=O)N[C@@H]2CCOC2)cc1-n1cc(NC(=O)Nc2c(F)cccc2Cl)cn1 | – | 38 | 40 | Active | – | – | 114

Continued, in another order:

Row | pIC50 [1] | t1/2 [2] [min] | t1/2 [3] [min] | inhibition [5] | concentration at 1 h [6] [nM] | concentration at 1 h [7] [nM] | SMILES | Activity [4] [%]
9 | < 4.70 | – | – | – | – | – | O=C(Nc1cnn(-c2cc(C(=O)NC3CNC3)cs2)c1)Nc1ccccc1Cl | –
10 | – | 35 | 49 | – | – | – | O=C(Nc1cnn(-c2csc(C(=O)NC3CC3)c2)c1)Nc1ccccc1Cl | 103
11 | < 4.70 | 13 | 33 | – | – | – | O=C(Nc1cnn(-c2csc(C(=O)N[C@@H]3CCOC3)c2)c1)Nc1ccccc1Cl | 112
12 | < 4.70 | – | – | – | – | – | O=C(Nc1cnn(-c2csc(C(=O)N[C@@H]3CCNC3)c2)c1)Nc1ccccc1Cl | –
13 | < 4.70 | 24 | 66 | Active | 1080 | 960 | O=C(Nc1cnn(-c2csc(C(=O)NC3COC3)c2)c1)Nc1ccccc1Cl | 104
14 | < 4.70 | – | – | – | – | – | [2H]C([2H])([2H])N1CC[C@@H](NC(=O)c2cc(-n3cc(NC(=O)Nc4ccccc4Cl)cn3)cs2)C1 | –
15 | < 4.70 | – | 54 | – | – | – | CN1CC[C@H](NC(=O)c2cc(-n3cc(NC(=O)Nc4ccccc4Cl)cn3)cs2)C1 | 94
16 | < 4.70 | – | – | – | – | – | CN1CC[C@@H](NC(=O)c2cc(-n3cc(NC(=O)Nc4ccccc4Cl)cn3)cs2)C1 | –
17 | < 4.70 | – | – | – | – | – | CC(C)N1CC[C@H](NC(=O)c2cc(-n3cc(NC(=O)Nc4ccccc4Cl)cn3)cs2)C1 | –
18 | – | 15 | 92 | – | – | – | CN1CCC(NC(=O)c2cc(-n3cc(NC(=O)Nc4ccccc4Cl)cn3)cs2)CC1 | 89
19 | – | 16 | – | – | – | – | O=C(Nc1cnn(-c2csc(C(=O)NC3CCOCC3)c2)c1)Nc1ccccc1Cl | 97
